In paper PMC8807399, “Synthesis, Characterization, and in vivo Evaluation of a Novel Potent Autotaxin-Inhibitor” (Frontiers in Pharmacology, 2022):
Converted amounts (≈) assume the structure as drawn.

Columns and labels:
[1] = Artificial membrane permeability assay; assay type: in vitro ADME; details: PAMPA, read-out: Permeability Pe
Experimental: The assay was performed in an automated fashion on 96-well microplates. The permeation of drugs was measured using a “sandwich” construction: A filter-plate was coated with phospholipids (membrane) and placed into a donor compartment containing a compound/buffer solution. Finally, the top of filter-plate was filled with buffer solution (acceptor). Donor concentration was measured at t-start (reference) and compared with the donor and acceptor concentration after a certain time (t-end) to calculate the extent of passage of the compound through the membrane. The main readout of the assay was the permeability value Pe expressed in 10^–6 * cm/s. Secondary readouts determined were the amount of compound in the donor and acceptor compartments as well as the retention in the membrane. Depending on the permeation rate and the membrane retention the compounds were classified as low (Pe < 0.2 and membrane < 20%) or medium and high (Pe ≥ 0.2 or Pe < 0.2 and membrane ≥ 20%). Each sample was measured in triplicate and a standard deviation was determined for the permeation constant Pe.

[2] = Glutathione addition screening; assay type: in vitro ADME; details: human liver microsomes + NADPH + GSH
Experimental: All sample handling was performed based on a 96-well plate format using an automated pipetting system. The test compounds, positive controls (diclofenac, troglitazone, nefazodone, 4-[[1-(4-fluorophenyl)-2-methyl-1H-imidazol-4-yl]ethynyl]-2-methylpyridine) and solvent control (DMSO) were incubated with human liver microsomes supplemented with NADPH and reduced GSH. Stable GSH conjugates whose production can be assumed to be the result of chemically reactive metabolites were detected using a quadrupole time of flight mass spectrometer run in untargeted full scan accurate mass MSE mode (Waters Xevo G1 QTOFMSE; Waters GmbH, Eschborn, Germany). This generic GSH adduct detection method and the assay workflow are taking advantage of the specific fragmentation behavior of the peptide moiety upon collision induced dissociation of GSH adducts and so are largely independent of the conjugate (“X”) itself.

[3] = In vitro microsomal stability, mouse; assay type: in vitro ADME; details: mouse microsomes, 1 µM; value of 10 = low clearance, essentially below detection limit
Experimental: (§1) Incubations of a test compound at a concentration of 1 µM with microsomes (0.5 mg/ml) from the appropriate species (human, mouse, or rat) plus cofactor NADPH were performed in 96-well plates at 37°C on a TECAN automated liquid handling system (Tecan Group Ltd., Männedorf, Switzerland). After pre-incubation of the test compound with the microsomes for 10 min, the enzymatic reaction was started by the addition of cofactors. Aliquots of the incubations are removed at 1, 3, 6, 9, 15, 25, 35, and 45 min and are then quenched with 1:3 (v/v) acetonitrile containing internal standards. Samples were then cooled and centrifuged before analysis of the supernatant by LC-MS/MS. Logarithmic Peak area ratios (test compound peak area/internal standard peak area) were plotted against incubation time and a linear fit made to the data with emphasis upon the initial rate of compound disappearance. The slope of the fit was then used to calculate the intrinsic clearance: Clint (µL/min/mg protein) = −slope (min-1) * 1,000/[protein concentration (mg/ml)].

[4] = Lipophilicity (LogD, octanol/buffer); assay type: physicochemical; details: 1-octanol / 25 mM phosphate buffer; pH 7.4, octanol/25 mM phosphate buffer
Experimental: The experiment started with the accurate coating of the hydrophobic layer (0.45 µm PVDF membranes), which was fixed on the bottom of each DIFI©-tube (Weidmann Medical Technology AG, Rapperswil, Switzerland). The coated membranes were then connected to a 96-well plate which has been prefilled with exactly 150 µl of the selected aqueous buffer solution (25 mM phosphate buffer, pH 7.4). The buffer solution contains already the compound of interest with a maximum starting concentration of 85 µM. To expand the measurement range down to logD = −0.5 and up to logD = +4, it is necessary to carry out the procedure at two different octanol/water ratios: One with an excess of octanol for hydrophilic compounds (logD < 1) and one with a low volume of octanol for the lipophilic compounds (logD > 1). Therefore, parts of the DIFI©-tubes were filled with 15 µl 1-octanol and another part with 1 µl 1-octanol. The resulting sandwich guarantees that the membrane was completely dipped in the buffer solution. The plate was then sealed and shaken for 12 h at room temperature (23°C). During this time, the substance is distributed between the layer, the octanol, and the buffer solution. After having reached a distribution equilibrium, the DIFI©-tubes were easily disassembled from the top of the 96-well plate, so that the remaining sample concentration in the aqueous phase could be analyzed by LC/MS.

[5] = HT-solubility assay; assay type: physicochemical; details: aqueous buffer, thermodynamic from solid; phosphate buffer pH 6.5
Experimental: This assay was performed on a TECAN station starting from 10 mM DMSO stock solutions of the test compounds. Two aliquots of the test compound were dried and dissolved in phosphate buffer at pH 6.5. Sonication supports optimal re-solubilization. The solutions were then filtered and diluted (3 different dilution levels for each compound) followed by quantification of the dissolved material with Rapid-Fire MS. Quantification was performed for each test compound with a 6-point calibration curve prepared with the same DMSO starting solution.

[6] = In vitro microsomal stability, human; assay type: in vitro ADME; details: human microsomes, 1 µM; value of 10 = low clearance, essentially below detection limit
Experimental: as §1

[7] = Single dose PK in rats; assay type: in vivo; details: rat; for AUC(0-inf) / half-life / clearance / Vd / Cmax / Tmax: plasma; for clearance: read-out: CLp; for Vd: read-out: Vdss
Experimental: Exposures in animals treated with ATX-inhibitors were determined from K2EDTA treated plasma by LC-MS/MS at different time points. 25 µL of plasma was used for a single concentration determination. Concentration/time profiles were analyzed with MS Excel (Microsoft Corporation, Redmond, WA, United States).
For PK experiments for 7, 13, 14, and 15, respectively, animals were treated either iv or po and exposures were determined at different time points after compound administration. Suitable formulations for 13 were, for example, NMP:Tris buffer pH 8.5 (30%/70%) for iv administration with a nominal drug concentration of 1 mg/ml (dose 2 mg/kg) and a suspension in NMP:gelatine/NaCl (10%/90%) for po administration with a nominal drug concentration of 2.5 mg/ml (dose 10 mg/kg). PK parameters in Table 2 were estimated from the concentration time profiles using Phoenix WinNonlin software (Certara, Princeton, NJ, United States).

[8] = target: T1, human ATX (Homo sapiens, UniProt Q13822); assay: Autotaxin inhibition assay (Amplex-Red); assay type: biochemical; details: ATX 3 nM, LPC 18:1 30 μM, read-out: hATX IC50
T1 construct: made in house
Experimental: Plates were sealed and incubated for 5 min. The final assay concentrations were ATX 3 nM, choline oxidase 2 U/ml, horseradish peroxidase 4 U/ml, LPC 18:1 30 μM, Amplex Red 50 μM, and DMSO 2%.

[9] = In vitro microsomal stability, rat; assay type: in vitro ADME; details: rat microsomes, 1 µM; value of 10 = low clearance, essentially below detection limit
Experimental: as §1

Row | Papp [1] | GSH adducts [2] | Mic CL m [3] | logD at 12 h [4] | solubility [5] | Mic CL h [6] | AUC(0-inf) ([7]; iv bolus, 3 mg/kg) | half-life ([7]; iv bolus, 3 mg/kg) | clearance ([7]; iv bolus, 3 mg/kg) | Vd ([7]; iv bolus, 3 mg/kg) | AUC(0-inf) ([7]; oral gavage, 30 mg/kg) | Cmax ([7]; oral gavage, 30 mg/kg) | Tmax ([7]; oral gavage, 30 mg/kg) | half-life ([7]; oral gavage, 30 mg/kg) | Oral F ([7]; oral gavage, 30 mg/kg) | IC50 [8] | Mic CL r [9] | Compound
1 | 0.4 ×10⁻⁶ cm/s | Neg | 10/10/na µL/m/mg prot | 2 | 190 µg/mL (≈ 377 µM) | 10/10/na µL/m/mg prot | 321 ng·h/mL | 21 min | 156 mL/min/kg | 1.7 L/kg | 30 ng·h/mL | 18 ng/mL | 15 min | 114 min | 1.1% | 8 nM | – | CS(=O)(=O)c1cc(Cl)cc(COC(=O)N2C[C@@H]3CN(C(=O)c4ccc5[nH]nnc5c4)C[C@H]3C2)c1 [Compound 15, (3aS,6aS)-5-(1H-Benzotriazole-5-carbonyl)-hexahydro-pyrrolo[3,4-c]pyrrole-2-carboxylic acid 3-chloro-5-methanesulfonyl-benzyl ester]
2 | 2.7 ×10⁻⁶ cm/s | Neg | 27 µL/m/mg prot | 2.5 | 46 µg/mL (≈ 97.2 µM) | 10 µL/m/mg prot | 1070 ng·h/mL | 78 min | 47 mL/min/kg | 0.9 L/kg | 660 ng·h/mL | 130 ng/mL | 30 min | 228 min | 6% | 6 nM | 40 µL/m/mg prot | O=C(CCc1ccc(OC(F)(F)F)cc1)N1C[C@@H]2CN(C(=O)c3ccc4[nH]nnc4c3)C[C@H]2C1 [Compound 14, 1-[(3aR,6aR)-5-(1H-benzotriazole-5-carbonyl)-hexahydro-pyrrolo[3,4-c]pyrrol-2-yl]-3-(4-trifluoromethoxy-phenyl)-propan-1-one]
3 | 1.8 ×10⁻⁶ cm/s | Neg | – | 3.2 | 8 µg/mL (≈ 16.8 µM) | 10/na/10 µL/m/mg prot | – | – | – | – | – | – | – | – | – | 137 nM | 10/na/10 µL/m/mg prot | O=C(COc1ccc(OC(F)(F)F)cc1)N1C[C@@H]2CN(C(=O)c3ccc4[nH]nnc4c3)C[C@H]2C1 [Compound 12, 1-[(3aS,6aS)-5-(1H-Benzotriazole-5-carbonyl)-hexahydro-pyrrolo[3,4-c]pyrrol-2-yl]-2-(4-trifluoromethoxy-phenoxy)-ethanone]
